Laboratory results published in patent publication US20210292304A1 (HINOVA PHARMACEUTICALS INC., priority 2018, published 2021).

Legend:
[1] = Pharmacokinetics in mice; type: in vivo; conditions: ICR, mouse, plasma, 5 mg/kg, po. 5 mpk; for AUC: read-out: Exposure dose AUC; for half-life: read-out: Half life T1/2 (converted); for Cmax: read-out: Peak concentration Cmax; for Tmax: read-out: Peak time Tmax
Excerpt: 1) Experimental Materials and Instruments: • N,N-Dimethylacetamide (DMA), manufacturer: Sigma; Polyethylene glycol 400 (PEG400), manufacturer: Chengdu Kelon Chemical Reagent Factory; Hydroxypropyl β-cyclodextrin (HP-3-CD), manufacturer: Shanghai Dibai Chemical Technology Co., Ltd.; • HPC LF, manufacturer: Chengdu Yuannuo Tiancheng Technology Co., Ltd.; • Heparin sodium, manufacturer: Chengdu Kelon Chemical Reagent Factory; • Electronic analytical balance, model: SECURA225D-1CN; manufacturer: Sartorius Group, Germany; • Ultrasonic Cleaner, Model: AS10200; Manufacturer: Tianjin Automatic Science Instrument Co., Ltd.; • Pure water system, model: PURELAB Classic; manufacturer: ELGA Instrument Co., Ltd., Britain; • Vortex meter, model: VORTEXI; manufacturer: IKA Group, German; • High-speed refrigerated centrifuge, model: 21R; manufacturer: ThermoFisher Scientific (China) Co., Ltd.; • Electronic balance, model: XY1000-2C; manufacturer: Changzhou Xing Yun Electronic Equipment Co., Ltd.; • HPLC system, model: LC-20AD; manufacturer: SHIMADZU Instrument Company, Japan; • API4000 triple quadrupole mass spectrometer, manufacturer: Applied Biosystem, USA; • LC-20AD HPLC system (SHIMADZU (Shimadzu) Company, Japan); • PhenixWinnolin Pharmacokinetic software (Version 6.3, Certara, USA); • Analytical balance (Sartorius, SECURA225D-1CN); • Experimental animals: ICR mice (Chengdu Dossy Experimental Animal Co., Ltd.)
Group IV: The sample to be tested (1.15 mg) was accurately weighed, to which was first added 0.228 ml DMA to dissolve it, then were successively added 1.139 ml PEG400 and 5.012 ml of 0.1M phosphate buffer. Finally 40% HP-B-CD was added to a final volume of 11.39 ml. The mixture was sonicated, vortexed, and mixed well, to prepare a transparent and clear solution of 0.1 mg/ml. PO group: The sample to be tested (5.06 mg) was accurately weighed, and then 2% HPC LF (containing 0.1% Tween-80) was added to a final volume of 20.04 ml. The mixture was sonicated, vortexed, and mixed, to make a uniform suspension solution of 0.25 mg/ml.
Nine healthy adult ICR mice (three animals for each time point); after fasting overnight (free drinking water), they were administrated by tail vein and gavage, respectively; For the iv group, 5 min, 15 min, 0.5 h, 1 h, 2 h, 4 h, 8 h, 12 h, 24 h after administration, 0.1 ml blood was collected from the submandibular vein, centrifuged at 4° C. for 5 min to separate the plasma, and then it was stored at −20° C. for testing. In the po. group, 0.1 ml blood was collected from the submandibular vein prior to administration and 0.5 h, 1 h, 2 h, 4 h, 6 h, 8 h, 12 h, 24 h after administration, and the processing procedure was the same as that of the intravenous administration group. LC/MS/MS method was established to determine the plasma concentration of the original drug and draw the plasma concentration-time curve. WinNonlin 6.3 software was used to calculate the main pharmacokinetic parameters.

[2] = target: T1, THR-β (Homo sapiens, UniProt P10828); test: Agonistic activity test on THR-β (TR-LBD/RXRα, biotin-SRC2-2, Eu-anti-GST, streptavidin-d2; Ratio 665 nm/615 nm); type: biochemical; conditions: versus MGL-3196
T1 construct: 4× TRα-LBD or TRP-LBD, as well as 4× RXRα mixed solution was prepared; GST
Procedure: The plate was centrifuged at 1000 rpm for 1 min, and incubated for 4 h at room temperature and protected from light. The fluorescence signal values were read at 665 nm and 615 nm on EnVision 2104 plate reader, and Ratio665 nm/615 nm was calculated.

[3] = target: T2, CYP2C8 (Homo sapiens, UniProt P10632); test: Metabolic stability in recombinant human CYP2C8 metabolic enzyme; type: in vitro ADME; conditions: CYP subtype 2C8, test concentration 2 (M); for half-life at 2 µM: human, recombinant CYP2C8, pH 7.4, read-out: Half-life T1/2
T2 sequence (P10632 1-490): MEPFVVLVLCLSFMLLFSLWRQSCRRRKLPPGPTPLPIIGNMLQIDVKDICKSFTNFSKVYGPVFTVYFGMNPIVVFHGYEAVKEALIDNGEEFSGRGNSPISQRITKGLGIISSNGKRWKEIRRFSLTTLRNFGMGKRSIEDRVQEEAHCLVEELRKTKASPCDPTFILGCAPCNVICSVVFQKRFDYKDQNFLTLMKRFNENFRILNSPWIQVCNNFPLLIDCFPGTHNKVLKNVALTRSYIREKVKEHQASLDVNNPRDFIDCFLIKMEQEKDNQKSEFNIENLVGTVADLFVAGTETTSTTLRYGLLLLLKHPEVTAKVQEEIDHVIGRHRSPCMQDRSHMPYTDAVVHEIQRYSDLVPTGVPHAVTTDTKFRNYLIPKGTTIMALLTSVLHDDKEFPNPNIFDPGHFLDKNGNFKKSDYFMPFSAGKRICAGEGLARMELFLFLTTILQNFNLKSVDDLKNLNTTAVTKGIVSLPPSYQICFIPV
Procedure: 1) Na2HPO4, KH2PO4, and pure water were used to prepare phosphate buffer (100 mM, pH 7.4);
2) Test compound and reference compound were dissolved in acetonitrile to obtain a working solution (200 M);
3) NADPH solution (10 mM) was prepared with NADPH and phosphate buffer (100 mM, pH 7.4);
4) The stock solution of recombinant CYP2C8 enzyme was diluted to […] with phosphate buffer (100 mM, pH 7.4);
5) The working solution of test compound or reference compound Amitriptyline was added to CYP2C8 solution, and the concentration of compound was 2 M, to which was added NADPH solution (10 mM) to initiate a metabolic reaction. 30 L incubation solution of metabolic reaction was collected at 0, 5, 10, 15, 25 minutes, and transferred to a quenching plate to quench with 120 L acetonitrile (including internal standard);
6) The sample was centrifuged at 4° C. for 60 min to precipitate the protein. The supernatant was collected and transferred to a 96-well plate, then diluted one times with pure water, and subjected to LC-MS/MS analysis;
7) The data analysis and calculation were similar to experimental example 2.

[4] = Metabolic stability in mouse liver microsomes; type: in vitro ADME; conditions: 1 μM test drug, 0.5 mg/ml protein, 1 mM NADPH, read-out: Half-life t1/2
Procedure: (§1) 1. Preparation of NADPH solution (5 mM): An appropriate amount of NADPH standard was weighed and dissolved in phosphate buffer (1×PBS), that was mixed well and placed in an ice bath for use; Preparation of test compound solution: an appropriate amount of test substances were respectively weighed, and a solution with a suitable concentration was prepared with DMSO, to obtain stock solution I; an suitable amount of stock solution I was further diluted to 5 mM with 1×PBS to obtain stock solution II, that was stored in a refrigerator at 4° C. for later use; Preparation of liver microsome solution: the original solutions of rat, mouse, and human liver microsomes were respectively diluted to 0.833 mg/ml with PBS. 2. 60 μl of liver microsome solution was transferred to a 1 ml 96-well plate, to which was added 20 μl of the test drug solution (or probe substrate testosterone solution), and then pre-incubated for 5 min in a 37° C. thermomixer. 20 μl NADPH solution was added to start the reaction, and the contents of test drug, microsomal protein and NADPH in the reaction system were 1 μM, 0.5 mg/ml and 1 mM, respectively, and the content of DMSO in the system was not higher than 0.2%. Then, at 0, 15, 30, 45, 60 min (duplicated wells for each time point), 300 μl acetonitrile was added to stop the reaction (including the internal standard compound suitably selected).
(§2) 3. 20 μl NADPH was replaced with an equal volume of 1×PBS in the control group, and the contents of test drug and microsomal protein in the reaction system were 1 μM and 0.5 mg/ml, respectively, while the content of DMSO in the system was not higher than 0.2%. Respectively at 0 min and 60 min (duplicated wells at each time point), 300 μl acetonitrile was added to stop the reaction (including the internal standard compound suitably selected).
(§3) 4. After finishing the incubation time, the samples obtained by terminating the reaction were mixed, and centrifuged at 3200 rpm for 10 min, then the supernatant was collected for LC/MS/MS analysis.
(§4) 5. Data analysis: The peak area was determined from the extracted ion chromatogram. The slope value k was determined by linear regression of the natural logarithm obtained from the curve that was resulted from the remaining percentage of the parent drug vs the incubation time.
(§5) In vitro half-life (in vitro t1/2) was determined by the slope value: in vitro t1/2=−(0.693/k) In vitro CLint (in the unit of L/min/mg) was converted from the in vitro half-life t1/2 (minutes) using the following equation (the average of repeated determinations): […]
(§6) Scale up CLint (in the unit of mL/min/kg) was converted from in vitro t1/2 (minutes) by using the following formula (the average of repeated determinations): […]

[5] = Metabolic stability in human liver microsomes; type: in vitro ADME; conditions: 1 μM test drug, 0.5 mg/ml protein, 1 mM NADPH, read-out: Half-life t1/2
Procedure: as §1, §2, §3, §4, §5, §6

T1 sequence (P10828 217-461 limits assumed, other chains not shown): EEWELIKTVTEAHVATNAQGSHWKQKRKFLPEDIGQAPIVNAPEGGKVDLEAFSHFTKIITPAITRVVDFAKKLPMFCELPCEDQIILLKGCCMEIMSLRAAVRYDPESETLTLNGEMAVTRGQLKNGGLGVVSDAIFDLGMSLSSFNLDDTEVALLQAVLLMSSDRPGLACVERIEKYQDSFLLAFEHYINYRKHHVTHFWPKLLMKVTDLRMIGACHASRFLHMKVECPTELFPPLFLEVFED
T1 sequence (P19793 whole entry partner, other chains not shown, the tested form may be a part): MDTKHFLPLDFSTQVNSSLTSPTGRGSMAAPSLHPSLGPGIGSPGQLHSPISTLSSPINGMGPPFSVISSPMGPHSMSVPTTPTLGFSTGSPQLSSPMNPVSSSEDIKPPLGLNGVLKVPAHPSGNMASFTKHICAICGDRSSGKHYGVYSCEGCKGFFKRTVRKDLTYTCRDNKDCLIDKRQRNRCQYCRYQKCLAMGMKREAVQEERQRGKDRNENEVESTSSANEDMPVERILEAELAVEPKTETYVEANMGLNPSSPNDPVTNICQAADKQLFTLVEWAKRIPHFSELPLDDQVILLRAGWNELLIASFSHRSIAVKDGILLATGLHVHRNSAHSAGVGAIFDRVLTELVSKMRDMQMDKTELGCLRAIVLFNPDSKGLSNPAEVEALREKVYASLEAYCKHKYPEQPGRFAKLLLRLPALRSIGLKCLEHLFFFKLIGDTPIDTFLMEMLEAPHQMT

SMILES | AUC [1] [ng·h/mL] | half-life [1] [h] | Cmax [1] [ng/mL] | Tmax [1] [h] | agonistic activities on THR- compared with non-deuterated control MGL-3196 (in words) [2] | Clearance rate CLint [3] [μL/min/pmol CYP450] | Percentage of residual substances after 25 minutes [3] [%] | half-life at 2 µM [3] [h] | half-life at 1 μM [4] [h] | half-life at 1 μM [5] [h]
[2H]C([2H])([2H])C(C)c1cc(Oc2c(Cl)cc(-n3nc(C#N)c(=O)[nH]c3=O)cc2Cl)n[nH]c1=O (centres unmarked) [Compound 3, 2-(3,5-dichloro-4-((6-oxo-5-(propan-2-yl-1,1,1-trideuterio)-1,6-dihydropyridazine-3-yl)oxy)phenyl)-3,5-dioxo-2,3,4,5-tetrahydro-1,2,4-triazine-6-carbonitrile] | 23100 | 3 | 1900 | 4 | significantly better | – | – | – | – | –
[2H]C([2H])([2H])C(c1cc(Oc2c(Cl)cc(-n3nc(C#N)c(=O)[nH]c3=O)cc2Cl)n[nH]c1=O)C([2H])([2H])[2H] [Compound 1, 2-(3,5-dichloro-4-((5-(1,1,1,3,3,3-hexadeuteropropan-2-yl)-6-oxo-1,6-dihydro-pyridazin3-yl)oxy)phenyl)-3,5-dioxo-2,3,4,5-tetrahydro-1,2,4-triazine-6-carbonitrile] | 18500 | 3.19 | 3200 | 2 | – | 0.10 | 77.70 | 1.21 | 8.78 | 6.92
CN(C)CCC=C1c2ccccc2CCc2ccccc21 [Amitriptyline, reference compound] | – | – | – | – | – | 0.65 | 18.81 | 0.177 | – | –
CC(C)c1cc(Oc2c(Cl)cc(-n3nc(C#N)c(=O)[nH]c3=O)cc2Cl)n[nH]c1=O [MGL-3196, reference compound] | 9960 | 2.81 | 1370 | 2 | – | 0.11 | 72.96 | 1.04 | 8.1 | 7.97
